“And” between values parts separate entries of the source, which are not always exact repeats. Identical values can stand only once.
What was measured:
[1] = Cell viability, Cell-Titer Glo (ATP levels), Hek 293T; type: cell-based; details: human; for CC50 / CC90: 48 h
Description: (§1) The toxicity of the compounds was evaluated with Cell-Titer Glo (Promega) following the manufacturer’s indications. Briefly, cells were seeded (~ 1 × 10^4 cells/plate) in an opaque white 96-well plate and treated with the appropriate compound at the indicated concentration for 48 h. Next, 100 µl of CellTiter-Glo® reagent was added and let the luminescence signal stabilizes for 10 min. The luminescence was recorded on a VictorX multi-plate reader (Perking Elmer, Waltham, MA, USA).
(§2) Fig. 6 Toxicity of hit compounds. A, B The toxicity in Hek 293T and Vero E6 cells (A and B, respectively) was analyzed after incubating the compounds at the indicated concentration for 48 h. Toxicity was analyzed by measuring ATP levels using the Cell-Titer Glo assay (Promega) following the manufacturer’s indications. Dots represent the average of at least three independent experiments. C The CC10, CC50, and CC90 values were calculated with the data shown in panels A and B TEXT PRINTED IN THE PICTURE: (C) Latanoprost: Hek293T CC10 (μM): 16.2; Hek293T CC50 (μM): 63.9; Hek293T CC90 (μM): 270; Vero E6 CC10 (μM): 76.9; Vero E6 CC50 (μM): 124; Vero E6 CC90 (μM): 171 | (C) Diperodon: Hek293T CC10 (μM): 14.2; Hek293T CC50 (μM): 41; Hek293T CC90 (μM): 98.3; Vero E6 CC10 (μM): 24; Vero E6 CC50 (μM): 88; Vero E6 CC90 (μM): 153 | (C) Ethynylestradiol: Hek293T CC10 (μM): 11.8; Hek293T CC50 (μM): 49.9; Hek293T CC90 (μM): 169.9; Vero E6 CC10 (μM): 13.6; Vero E6 CC50 (μM): 96.6; Vero E6 CC90 (μM): 224 | (C) Simvastatin: Hek293T CC10 (μM): 8.0; Hek293T CC50 (μM): 34.2; Hek293T CC90 (μM): 125.8; Vero E6 CC10 (μM): 3.11; Vero E6 CC50 (μM): 6.02; Vero E6 CC90 (μM): 61.2 | (C) Rabeprazol: Hek293T CC10 (μM): 14.3; Hek293T CC50 (μM): 38.1; Hek293T CC90 (μM): 83.6; Vero E6 CC10 (μM): 51.6; Vero E6 CC50 (μM): 122.8; Vero E6 CC90 (μM): 194 | (C) Ethaverine: Hek293T CC10 (μM): 9.7; Hek293T CC50 (μM): 43.8; Hek293T CC90 (μM): 120.7; Vero E6 CC10 (μM): 45; Vero E6 CC50 (μM): 119.8; Vero E6 CC90 (μM): 194.7

Hek 293T cells [2] = experiment: as above; type: cell-based; details: 48 h, Fig. 6C
Description: as §1, §2

[3] = Cell viability, Cell-Titer Glo (ATP levels), Vero E6; type: cell-based; details: African green monkey, Fig. 6C; for CC50 / CC90: 48 h
Description: as §1, §2

Vero E6 cells = experiment: as above; type: cell-based; details: 48 h, Fig. 6C
Description: as §1, §2

[4] = tested on: SARS-CoV-2 S-mediated membrane fusion
[5] = tested on: SARS-CoV-2 S-mediated membrane fusion in the presence of TMPRSS2
[6] = tested on: Nipah virus membrane fusion; type: cell-based; details: Hek 293T, NiV F and G, 48 h
SARS-CoV-2 = type: cell-based
IAV/WSN/33 = type: cell-based, Influenza A virus
Hek 293T cells [7] = experiment: Cell viability, Cell-Titer Glo (ATP levels), Hek 293T; type: cell-based; details: Hek 293T transfected with TMPRSS2 or eYFP, Fig. S2
[8] = Table 1, Hek 293T, read-out: CC50
[9] = Fig. 6C, read-out: Hek293T CC50
[10] = Fig. 6C, read-out: Hek293T CC90

Compound: O=C(Nc1ccccc1)OCC(CN1CCCCC1)OC(=O)Nc1ccccc1 (stereo not shown) [Diperodon]
- CC50 [1, 8]: 41 µM
- CC50 [1, 9]: 41 µM
- CC90 [1, 10]: 98.3 µM
- Hek293T CC10 (Hek 293T cells [2]): 14.2 µM
- CC50 [3]: 88 µM
- CC90 [3]: 153 µM
- Vero E6 CC10 (Vero E6 cells): 24 µM
- Activity index (Fusion % at CC50/CC50), NO TMPRSS2 [4]: 3,03
- Fusion % at CC50, NO TMPRSS2 [4]: 123,98%
- Activity index (Fusion % at CC50/CC50), TMPRSS2 [5]: 3,39
- Fusion % at CC50, TMPRSS2 [5]: 138,77%

Compound: CCOc1ccc(Cc2nccc3cc(OCC)c(OCC)cc23)cc1OCC [Ethaverine]
- CC50 [1, 8]: 43.8 µM
- CC50 [1, 9]: 43.8 µM
- CC90 [1, 10]: 121 µM
- Hek293T CC10 (Hek 293T cells [2]): 9.7 µM
- CC50 [3]: 120 µM
- CC90 [3]: 195 µM
- Vero E6 CC10 (Vero E6 cells): 45 µM
- effect on NiV-induced membrane fusion (in words) [6]: enhance viral-mediated membrane fusion in a mild dose-dependent manner
- effect on SARS-CoV-2 viral titers (in words) (SARS-CoV-2): did not increase or accelerate the growth
- effect on IAV titers (in words) (IAV/WSN/33): did not increase viral titers
- Activity index (Fusion % at CC50/CC50), NO TMPRSS2 [4]: 2,86
- Fusion % at CC50, NO TMPRSS2 [4]: 125,39%
- Activity index (Fusion % at CC50/CC50), TMPRSS2 [5]: 9,56
- Fusion % at CC50, TMPRSS2 [5]: 419,22%

Compound: C#C[C@]1(O)CC[C@H]2[C@@H]3CCc4cc(O)ccc4[C@H]3CC[C@@]21C [Ethynylestradiol]
- CC50 [1, 8]: 49.9 µM
- CC50 [1, 9]: 49.9 µM
- CC90 [1, 10]: 170 µM
- Hek293T CC10 (Hek 293T cells [2]): 11.8 µM
- CC50 [3]: 96.6 µM
- CC90 [3]: 224 µM
- Vero E6 CC10 (Vero E6 cells): 13.6 µM
- effect on NiV-induced membrane fusion (in words) [6]: enhance viral-mediated membrane fusion in a mild dose-dependent manner
- SARS-CoV-2 titer, Average (SARS-CoV-2): 2.6x10^6 pfu/mL and 3.6x10^6 pfu/mL and 5.0x10^6 pfu/mL
- effect on SARS-CoV-2 viral titers (in words) (SARS-CoV-2): increased viral titers
- effect on IAV titers (in words) (IAV/WSN/33): increases IAV titers by approximately one log
- Activity index (Fusion % at CC50/CC50), NO TMPRSS2 [4]: 3,25
- Fusion % at CC50, NO TMPRSS2 [4]: 162,00%
- increase in viral-induced membrane fusion (in words) [4]: stronger inducers
- Activity index (Fusion % at CC50/CC50), TMPRSS2 [5]: 6,27
- Fusion % at CC50, TMPRSS2 [5]: 312,60%
- toxicity in the presence of TMPRSS2 (in words) (Hek 293T cells [7]): compound toxicity was not affected by the presence of the cellular protease

Compound: CC(C)OC(=O)CCC/C=C\C[C@@H]1[C@@H](CC[C@@H](O)CCc2ccccc2)[C@H](O)C[C@@H]1O [Latanoprost]
- CC50 [1, 8]: 63.9 µM
- CC50 [1, 9]: 63.9 µM
- CC90 [1, 10]: 270 µM
- Hek293T CC10 (Hek 293T cells [2]): 16.2 µM
- CC50 [3]: 124 µM
- CC90 [3]: 171 µM
- Vero E6 CC10 (Vero E6 cells): 76.9 µM
- Activity index (Fusion % at CC50/CC50), NO TMPRSS2 [4]: 1,11
- Fusion % at CC50, NO TMPRSS2 [4]: 70,98%
- increase in viral-induced membrane fusion (in words) [4]: stronger inducers
- Activity index (Fusion % at CC50/CC50), TMPRSS2 [5]: 2,39
- Fusion % at CC50, TMPRSS2 [5]: 152,75%

Compound: COCCCOc1ccnc(C[S+]([O-])c2nc3ccccc3[nH]2)c1C (stereo not shown) [Rabeprazol]
- CC50 [1, 8]: 38.1 µM
- CC50 [1, 9]: 38.1 µM
- CC90 [1, 10]: 83.6 µM
- Hek293T CC10 (Hek 293T cells [2]): 14.3 µM
- CC50 [3]: 123 µM
- CC90 [3]: 194 µM
- Vero E6 CC10 (Vero E6 cells): 51.6 µM
- effect on NiV-induced membrane fusion (in words) [6]: enhance viral-mediated membrane fusion in a mild dose-dependent manner
- SARS-CoV-2 titer, Average (SARS-CoV-2): 3.2x10^6 pfu/mL and 4.2x10^6 pfu/mL and 6.1x10^6 pfu/mL
- effect on SARS-CoV-2 viral titers (in words) (SARS-CoV-2): increased viral titers
- effect on IAV titers (in words) (IAV/WSN/33): did not increase viral titers
- Activity index (Fusion % at CC50/CC50), NO TMPRSS2 [4]: 4,70
- Fusion % at CC50, NO TMPRSS2 [4]: 179,16%
- Activity index (Fusion % at CC50/CC50), TMPRSS2 [5]: 6,39
- Fusion % at CC50, TMPRSS2 [5]: 243,51%

Compound: CCC(C)(C)C(=O)O[C@H]1C[C@@H](C)C=C2C=C[C@H](C)[C@H](CC[C@@H]3C[C@@H](O)CC(=O)O3)[C@H]21 [Simvastatin]
- CC50 at 48 h [1, 9]: 34.2 µM
- CC90 at 48 h [1, 10]: 126 µM
- CC50 at 48 h [1, 8]: 34.2 µM
- Hek293T CC10 (Hek 293T cells [2]): 8.0 µM
- CC50 at 48 h [3]: ~6 µM
- CC90 at 48 h [3]: 61.2 µM
- CC50 (Vero E6 cells): 6.02 µM
- Vero E6 CC10 (Vero E6 cells): 3.11 µM
- Activity index (Fusion % at CC50/CC50), NO TMPRSS2 [4]: 5,03
- Fusion % at CC50, NO TMPRSS2 [4]: 172,00%
- Z-score [4]: 1,72
- increase in viral-induced membrane fusion (in words) [4]: stronger inducers
- Activity index (Fusion % at CC50/CC50), TMPRSS2 [5]: 4,79
- Fusion % at CC50, TMPRSS2 [5]: 163,57%

Compound: C=C(NC(=O)C(=C)NC(=O)c1csc(C2=N[C@@H]3c4csc(n4)[C@H]4NC(=O)c5csc(n5)[C@H]([C@](C)(O)[C@@H](C)O)NC(=O)[C@H]5CSC(=N5)/C(=C/C)NC(=O)[C@H]([C@@H](C)O)NC(=O)c5csc(n5)[C@]3(CC2)NC(=O)[C@H](C)NC(=O)C(=C)NC(=O)[C@H](C)NC(=O)[C@H]([C@@H](C)CC)N[C@@H]2C=Cc3c([C@H](C)O)cc(nc3[C@H]2O)C(=O)O[C@@H]4C)n1)C(N)=O [Thiostrepton]
- Z-score [4]: 5,52

Compound: O=C(O)Cc1cc(I)c(Oc2ccc(O)c(I)c2)c(I)c1 [Tiratricol, 3,3',5-triiodothyroacetic acid]
- Z-score [4]: 4,40

Compound: Cl.NC1CCN(c2nc3c(cc2F)c(=O)c(C(=O)O)cn3-c2ccc(F)cc2F)C1 (stereo not shown) [Tosufloxacin hydrochloride]
- Z-score [4]: 1,77

Compound: O=C(CCCCCCC(=O)Nc1ccccc1)NO [Vorinostat]
- Z-score [4]: 4,62

Compound: CCCOc1ccccc1-c1nc2nn[nH]c2c(=O)[nH]1 [Zaprinast]
- Z-score [4]: 1,64

Compound: O=P(O)(O)C(O)(Cn1ccnc1)P(=O)(O)O [Zoledronic acid hydrate]
- Z-score [4]: 2,27

Compound: Meclocycline sulfosalicylate
- Z-score [4]: 5,55

Compound: Tyloxapol
- Z-score [4]: 3,89
